Measurements: patent US20130152227A1, “ENHANCED DISEASE […] INTRODUCTION OF NH3” (priority 2010, published 2013)
Where two headings read alike, the source gives them in different places.

Key:
PR3 = test: RT-PCR / real-time qPCR of PR3 after foliar spray; type: in vivo, Oryza sativa L; settings: for PR3 expression induction: 1 mM BTH
Text: (§1) To investigate the BTH- and INA-induced responses at the molecular level, we looked at the transcript expression levels of several rice defense-related genes, including PR1a, PR3, PR10, POX (peroxidase), and NH1. RT-PCR results of these genes for response to BTH treatment are shown in FIG. 5a and real-time quantitative PCR results in FIG. 5b. The input cDNA amounts were equalized first by using actin as the reference in FIG. 5a. Quantitative expression data in FIG. 5b are expressed as fold of actin gene expression. As expected, the NH3 levels in the nNT-NH3 plants (filled bar) are elevated by about 3- to 4-fold compared to Kit (open bar) control before treatment. […] Mock treatment appears also has effects on the NH3 levels.
(§2) For 10 mM BTH treatment, the commercial product Actigard (Syngenta) was first used for foliar spray on the rice plants. Pure BTH chemical […] (Wako) was subsequently used in place of Actigard. One mM of BTH and INA solutions were prepared in 0.05% Tween 20 for foliar spray.
(§3) Leaf samples were collected and frozen immediately in liquid nitrogen. Leaf samples were stored at −80° C. until use. Total RNA was extracted using the Trizol reagent (Sigma) according to the manufacturer's instruction. RNA was reverse-transcribed using reverse transcriptase Superscript (Invitrogen). Approximately 10 μg of RNA was used for each reverse transcription. RT-PCR was first performed with primers targeting an actin gene as the reference. An equal amount of cDNA input was then used for RT-PCR for NH3 or defense-related genes. RT-PCR for NH3 used primers NH3-RT1 (5′[…]3′; SEQ ID NO:29) and NH3-RT2 (5′[…]3; SEQ ID NO:30). RT-PCR for NTAP-NH3 used primers NH3-2 (5′[…]3; SEQ ID NO:31) and NTAP-5 (5′[…]3; SEQ ID NO:32). RT-PCR for NH1 used primers NH1-RT1 (5′[…]3; SEQ ID NO:33) and NH1-TAP2 (5′[…]3; SEQ ID NO:34). Genes PR1a (Os07g03710) and PR10 (Os12g36830) as markers for plants defense have been described before (Park et al., 2008).
(§4) Quantitative real time PCR were performed on a Bio-Rad CFX96 Real-Time System coupled to a C1000 Thermal Cycler (Bio-Rad). […]

NH3 = test: RT-PCR / real-time qPCR of NH3 after foliar spray; type: in vivo, Oryza sativa L
Text: as §1, §2, §3, §4

[1] = system: rice plants (nNT-NH3, NTAP control, Kit); settings: for lesion mimic spots / bleached areas on leaves: 1 mM foliar spray, one week
NH1 = test: RT-PCR / real-time qPCR of NH1 after foliar spray; type: in vivo, Oryza sativa L; settings: 1 mM BTH
Text: as §1, §2, §3, §4

PR10 = test: RT-PCR / real-time qPCR of PR10 after foliar spray; type: in vivo, Oryza sativa L
Text: as §1, §2, §3
Quantitative real time PCR were performed on a Bio-Rad CFX96 Real-Time System coupled to a C1000 Thermal Cycler (Bio-Rad). For qPCR reactions, the Bio-Rad SsoFast EvaGreen Supermix was used. QPCR primers used are as follows: Actin-Q1 ([…]; SEQ ID NO:35) and Actin-Q2 ([…]; SEQ ID NO:36) for actin gene; NH1-RT3 (CTGATCCGTTTCCCTCGGA; SEQ ID NO:37) and NH1-RT4 ([…]; SEQ ID NO:38) for the NH1 gene; NH3-RT3 ([…]; SEQ ID NO:39) and NH3-RT4 ([…]; SEQ ID NO:40) for the NH3 gene; PR3-1 ([…]; SEQ ID NO:41) and PR3-2 ([…]; SEQ ID NO:42) for the PR3 gene; POX8.1-1 ([…]; SEQ ID NO:43) and POX8.1-2 (CATGGGCTTCCTGATCTG; SEQ ID NO:44) for the POX8.1 gene; and POX22.3-1 (ATCGTGTCGACGACGACAT; SEQ ID NO:45) and POX22.3-2 ([…]; SEQ ID NO:46) for the POX22.3 gene. QPCR reactions were run at 56° C. annealing for 12 sec and 95° C. for 8 sec for 40 cycles.

[2] = system: peroxidase genes POX8.1 and POX22.3; test: RT-PCR / real-time qPCR of peroxidase genes after foliar spray; type: in vivo, Oryza sativa L
Text: as §1, §2, §3, §4

PR1a = test: RT-PCR / real-time qPCR of PR1a after foliar spray; type: in vivo, Oryza sativa L; settings: 1 mM INA, Kit plants
Text: as §1, §2
Leaf samples were collected and frozen immediately in liquid nitrogen. Leaf samples were stored at −80° C. until use. Total RNA was extracted using the Trizol reagent (Sigma) according to the manufacturer's instruction. […]
as §4

[3] = 1 mM BTH, both Kit and nNT-NH3 plants

Structure (SMILES): c1ccc2snnc2c1 [BTH, benzothiadiazole]
- PR3 expression induction (PR3; Kit plants): up to 2 fold
- PR3 expression induction (PR3; nNT-NH3 plants): up to 10 fold
- NH3 transcript levels (NH3; 1 mM BTH, Kit control plants, especially day 4 and day 8): slightly reduced
- NH3 levels (NH3; 1 mM BTH, nNT-NH3 plants): further modestly induced at day 1
- lesion mimic spots / bleached areas on leaves ([1]; Kit control plants): developed no lesion mimic spots at all
- cell death phenotype ([1]; 10 mM foliar spray, NTAP control plants (Ubi-1 promoter)): completely clear of such cell death phenotype
- time to dry-out of whole leaves ([1]; 10 mM foliar spray, nNT-NH3 plants): 3 to 4 days
- NH1 expression levels (NH1; Kit plants): relatively unchanged
- NH1 level induction compared to untreated Kit (NH1; nNT-NH3 plants, one day after treatment): 2 fold
- NH1 level induction (NH1; nNT-NH3 plants, one day after treatment, vs untreated nNT-NH3): about 3.5 fold
- PR10 expression induction (PR10; 1 mM BTH, Kit plants): up to 2 fold
- PR10 expression induction over untreated Kit (PR10; 1 mM BTH, nNT-NH3 plants): ≤ 12 fold
- PR10 expression induction over untreated nNT-NH3 (PR10; 1 mM BTH, nNT-NH3 plants): up to 51 fold
- POX8.1 expression [2, 3]: significantly induces
- POX22.3 expression [2, 3]: significantly induces

Structure (SMILES): O=C(O)c1cc(Cl)nc(Cl)c1 [INA, 2,6-dichloroisonicotinic acid]
- PR3 expression (PR3; 1 mM INA, Kit plants): slightly induces
- levels of NH3 expression (NH3; 1 mM INA): slightly reduces
- lesion mimic spots / bleached areas on leaves ([1]; Kit control plants): little effects
- lesion mimic spots / bleached areas on leaves ([1]; nNT-NH3 plants): developed typical lesion-mimic spots, but no bleached areas on leaves
- PR1a expression (PR1a): slightly induces
- PR10 expression (PR10; 1 mM INA, Kit plants): slightly induces
- POX expression ([2]; 1 mM INA, Kit and nNT-NH3 plants): induces
